# Assay results as given in PubChem BioAssay (NCI).
#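 Cultured in 96-well plates, cells were exposed to test compound for 48 hours across five concentrations. GI50: concentration for 50% inhibition of growth. TGI: concentration producing complete growth inhibition.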
# Key:
# Test in all cases: NCI anticancer screen, dose series, 48 h
# CAKI-1 renal = test system: CAKI-1 renal
# SF-268 CNS = test system: SF-268 CNS
# MOLT-4 leukemia = test system: MOLT-4 leukemia
# HCC-2998 colon = test system: HCC-2998 colon
# NCI-H226 lung = test system: NCI-H226 lung
# OVCAR-5 ovarian = test system: OVCAR-5 ovarian
# ACHN renal = test system: ACHN renal
# HT29 colon = test system: HT29 colon
# SNB-75 CNS = test system: SNB-75 CNS
# HOP-62 NSCLC = test system: HOP-62 NSCLC
Structure (SMILES),GI50 (CAKI-1 renal) [µM],TGI (CAKI-1 renal) [µM],GI50 (SF-268 CNS) [µM],TGI (SF-268 CNS) [µM],GI50 (MOLT-4 leukemia) [µM],TGI (MOLT-4 leukemia) [µM],GI50 (HCC-2998 colon) [µM],TGI (HCC-2998 colon) [µM],GI50 (NCI-H226 lung) [µM],TGI (NCI-H226 lung) [µM],GI50 (OVCAR-5 ovarian) [µM],TGI (OVCAR-5 ovarian) [µM],GI50 (ACHN renal) [µM],TGI (ACHN renal) [µM],GI50 (HT29 colon) [µM],TGI (HT29 colon) [µM],GI50 (SNB-75 CNS) [µM],TGI (SNB-75 CNS) [µM],GI50 (HOP-62 NSCLC) [µM],TGI (HOP-62 NSCLC) [µM]
COc1cccc(-n2ncc3c(N/N=C/c4ccc(C(=O)NCCN(C)C)cc4)ncnc32)c1,1.27,5.48,4.11,8.46,4.48,11,4.66,8.58,9.36,> 22.2,4.53,8.61,1.08,4.86,0.814,4.55,1.05,5.13,4.14,7.81
COC(=O)C(=O)C1(CCC(C)=O)c2ccccc2-c2c(C)ccc(C)c21 (centres undefined),–,> 100,–,> 100,–,66,–,> 100,–,> 100,–,> 100,–,> 100,–,> 100,–,> 100,–,> 100
COc1ccc(-c2nn3c(-c4cc(F)c(Cl)cc4Cl)nnc3s2)cc1,37.9,> 100,19.7,> 100,26.5,80.7,20.7,48.7,47.9,> 100,25.5,88.9,37.8,> 100,18.5,44.3,17.2,51.5,26.2,> 100
CCc1ccccc1NC(=O)C(=O)CC(=O)c1sc(Nc2ccccc2)nc1C,–,> 100,–,> 100,–,> 100,–,> 100,–,> 100,–,> 100,–,> 100,–,> 100,–,> 100,–,> 100
O=c1cc(-c2ccccc2)[nH]c2ccccc12,0.825,> 100,3.18,> 100,0.703,> 100,0.639,–,7.4,> 100,–,> 100,0.858,> 100,0.39,> 34.8,0.542,> 100,4.85,> 100
COC(=O)[C@H](C[C@H](Cc1ccccc1)NC(=O)c1csc([C@@H](C[C@H](C(C)C)N(C)C(=O)[C@@H](NC(=O)[C@H]2CCCCN2C)C(C)C)OC(C)=O)n1)NC(=O)OCc1ccccc1,0.00168,> 9,0.000974,> 9,< 0.0009,> 9,< 0.0009,> 5.64,0.00144,0.0799,0.0046,> 9,0.00243,> 9,< 0.0009,–,< 0.0009,> 9,< 0.0009,> 9
CCOC(=O)COc1ccccc1/C=C1\CCC(CN(C)C)C1=O (centres undefined),–,10.9,–,12.7,–,4.61,–,7.98,–,32.8,–,32.4,–,26.9,–,22.6,–,29.5,–,35.8
COC(=O)[C@@]1(C)CC[C@]2(C)CC[C@]3(C)C4=CC=C5C(=CC(=O)C(O)=C5C)[C@]4(C)[C@@H](O)C[C@@]3(C)[C@@H]2C1,3.94,13.9,9.62,22.2,3.18,20.1,13,25.2,13.9,24.9,12.9,24.5,3.8,13.4,10.8,23.1,11.6,26,13.3,25.9
Cc1ccccc1[P+](Cc1ccccc1)(c1ccccc1)c1ccccc1,12.1,> 100,3.44,> 100,3.58,17.6,2.06,23.2,2.35,> 100,2.46,> 100,8.3,> 100,1.79,29,2.14,20.2,4.34,> 100
COc1cc(/C=C/c2cc(O)c3cc(C(C)=O)c(=O)oc3c2)cc2c1O[C@]1(C)CC[C@@H](O)C(C)(C)[C@H]1C2,–,> 39.4,> 21.4,> 56.4,–,> 26.4,> 28.2,> 48.7,> 23.7,> 64.9,> 36.5,> 86,> 22.9,> 74,> 24.9,> 62.2,–,> 48,> 26.8,> 79.9
